Experimental data as given in article PMC8264259, “A Novel Ruthenium(II) Complex With Lapachol Induces G2/M Phase Arrest Through Aurora-B Kinase Down-Regulation and ROS-Mediated Apoptosis in Human Prostate Adenocarcinoma Cells” (Frontiers in Oncology, 2021).

What was measured:
[1] = system: FGH (human mouth fibroblast); assay: Alamar blue cytotoxicity assay, FGH non-cancer cells; type: cell-based; conditions: 24-h incubation, mean ± S.E.M.
Excerpt: Human lung carcinoma (A549, ATCC® CCL-185™), human hepatocellular carcinoma (HepG2, ATCC® HB-8065™), and human breast adenocarcinoma (MDA-MB-231, ATCC® HTB-26™) were obtained from American Type Cell Collection (ATCC). Human melanoma (A-375, BCRJ-0278), Human colorectal adenocarcinoma (Caco-2, BCRJ 0059), human prostate adenocarcinoma (DU-145, BCRJ-0078, and PC-3, BCRJ-0269), human mouth fibroblast (FGH, BCRJ-0089), and human prostate epithelial cells (PNT-2, BCRJ-0366) were obtained from Rio de Janeiro Cells Bank (BCRJ). The cells A549, A-375, Caco-2, DU-145, HepG2, MDA-MB-231, and FGH were cultured in Dulbecco’s Modified Eagle’s Medium (DMEM, Gibco-Invitrogen®), PC-3 and PNT-2 cells were grown in Roswell Park Memorial Institute Medium (RPMI-1640, Gibco-Invitrogen®). Both mediums were supplemented according to the needs of each lineage, as recommended by its cell banks with 2 mM L-glutamine (Gibco-Invitrogen®), 10% or 20% fetal bovine serum (Gibco-Invitrogen®), 1% antibiotic-antimycotic solution (5 mg/ml penicillin, 5 mg/ml streptomycin, and 10 mg/ml neomycin, Gibco-Invitrogen®), and 3.7 g/L of NaHCO3 (Sigma-Aldrich). All cell lines were cultured in flasks at 37°C in 5% CO2 and 96% of relative humidity according to the procedures proposed by ([31]), and a mycoplasma stain kit (Sigma-Aldrich) was used to confirm the use of cells devoid of contamination. The assays were conducted between the third and the seventh-cell passage with sub-cultures every 3 to 4 days to maintain exponential growth. The cell viability was checked using the trypan blue dye exclusion assay for all experiments where over 95% of the cells were viable at the beginning of the tests.
The in vitro antiproliferative activity was quantified using the Alamar blue® assay, according to the method reported by ([32]). Cells were seeded in 96-well plates for all experiments (1.5 × 10^4 cells/well). After 24 h, the complexes were dissolved in DMSO and added to each well and incubated for 24 h. Dilutions of the complexes were prepared to obtain concentrations ranging from 0.3 to 100 μM. […] DMSO (0.1% v/v) was used as the vehicle control. Following 24 h of incubation, 50 μl of Alamar blue® (resazurin at 0.01% w/v, Sigma-Aldrich) was added to each well, and the plates were incubated, at 37°C, in the dark. Fluorescence reading was performed in a Synergy H1 Fluorescence Spectrophotometer (BioTek®), using excitation and emission filters at wavelengths of 560 and 590 nm, respectively. The fluorescence intensity was measured in arbitrary fluorescence units (AFU) and the AFU of untreated cells (CTL) was considered 100%. The cytotoxic effects of the compounds were estimated in terms of cell proliferation inhibition (%) and expressed as half-maximal inhibitory concentration (IC50). The cell proliferation inhibition percentage of cells exposed to treatments was calculated following: % Inhibition = 100 − (AFU of treated well/AFU of control well) × 100). The IC50 values were calculated from the cell proliferation inhibition percentage by nonlinear regression method using CompusSyn® Software.

[2] = system: DU-145 cells; assay: Clonogenic assay; type: cell-based, human; conditions: 24 h treatment, colonies after 7 days
Protocol: The clonogenic assay was performed in accordance with the guidelines of ([34]). […] DMSO (0.1% v/v) was used as the vehicle control. After 24 h, the cells were washed with PBS (Gibco-Invitrogen®) and harvested by trypsinization. Cells were counted using a Neubauer chamber and replated then on cell culture dishes of 21.5 cm^2 in a density of 200 cells per culture dish for each treatment in triplicate. After 7 days, cells were fixed in ice-cold methanol: acetic acid: distilled water (1:1:8), air-dried, and stained with crystal violet (0.5% w/v, Sigma-Aldrich) for 20 min. Colonies with at least 50 cells were counted. Plating efficiency (PE) of DU-145 cells was calculated by the ratio of the number of colonies observed after 7 days of incubation to the number of cells seeded (two hundred). The average of colonies in control was considered as 100%, and the number of colonies that arise after treatment of cells is called the surviving fraction (SF), obtained by:
SF = Numberofcoloniescountedineachtreatment/Numberofcoloniescountedincontrol x PE × 100

[3] = system: DU-145 cells; assay: Comet assay, DU-145; type: cell-based, human; conditions: DU-145, 0.5 μM, 24 h
Protocol: The comet assay was performed to evaluate DNA damage following the method described by ([37]). Briefly, DU-145 and PNT-2 cells were seeded (1.0 × 10^5 cells/well) in 24-well plates and maintained to attach at 37°C in 5% CO2 for 24 h. After, cells were treated with different concentrations of complex (2) for 24 h. DMSO (0.1% v/v) was used as the vehicle control and methyl methanesulfonate (150 μM, Sigma-Aldrich) as DNA damage inducer. Following 24 h of incubation, the cells were collected, and cell viability assay was performed using trypan blue dye. […] Then, cells were mixed with UltraPure™ Low-Melting-Point Agarose (0.5%, Invitrogen®), and added on pre-coated slides with UltraPure™ Agarose (1.5%, Invitrogen®). After agarose solidification, the slides were immersed in a lysis solution (2.5 M NaCl, 100 mM EDTA, 10 mM Tris, 10% DMSO, 1% Triton X-100, pH 10.4) for 18 h at 4°C. […] The nucleoids were identified in a fluorescence microscope (AxioStar Plus, Carl Zeiss Axio Cam MRc-AxioVision 3.1) using a 516 to 560 nm filter, 590 nm filter barrier, in 20× objective with an integrated digital camera. For each treatment, 100 random nucleoids were analyzed, and the tail fluorescence was measured through the Comet Assay IV™ imaging system (Perceptive Instruments^©, Bury St Edmunds, England).

Question: For CC(C)=CCC1=C([O-])C(=O)c2ccccc2C1=O.F[P-](F)(F)(F)(F)F.[Ru+2].c1ccc(-c2ccccn2)nc1.c1ccc(P(CP(c2ccccc2)c2ccccc2)c2ccccc2)cc1 [complex (1), [Ru(Lap)(dppm)(bipy)]PF6], which IC50 [1] is on record?
Answer: The IC50 was 3100 ± 200 nM.

Question: What about the “survival fraction (SF)” value ([2]; DU-145, 0.125 μM) of the same compound?
Answer: The value was 65.1%.

Question: And the “survival fraction (SF)” value ([2]; DU-145, 0.25 μM)?
Answer: The value was 35.1%.

Question: And the “survival fraction (SF)” value ([2]; DU-145, 0.5 μM)?
Answer: Its value is 18.3%.

Question: And the “survival fraction (SF)” value ([2]; DU-145, 1.0 μM)?
Answer: The value was 9.0%.

Question: What about the “survival fraction (SF)” value ([2]; DU-145, 1.5 μM) of the same compound?
Answer: Its value is 4.3%.

Question: What does the source list for CC(C)=CCC1=C([O-])C(=O)c2ccccc2C1=O.F[P-](F)(F)(F)(F)F.[Ru+2].c1ccc(P(CP(c2ccccc2)c2ccccc2)c2ccccc2)cc1.c1cnc2c(c1)ccc1cccnc12 [complex (2), [Ru(Lap)(dppm)(phen)]PF6]?
Answer: IC50 [1]: 2500 ± 300 nM; survival fraction (SF) ([2]; DU-145, 0.125 μM): 58.0%; survival fraction (SF) ([2]; DU-145, 0.25 μM): 17.7%; survival fraction (SF) ([2]; DU-145, 0.5 μM): 4.3%; survival fraction (SF) ([2]; DU-145, 1.0 μM): 0%; survival fraction (SF) ([2]; DU-145, 1.5 μM): 0%; DNA damage (comet tail intensity) [3]: significant DNA damage increase
